{"source": "paper PMC3828125", "about": "(Biochemistry, 2011)", "key": {"CYP3A4 [1]": {"molecular_target": "CYP3A4 (Homo sapiens, UniProt P08684)"}, "CYP3A4 [2]": {"molecular_target": "T1, CYP3A4 (Homo sapiens, UniProt P08684, S18F)"}, "CYP3A4 [3]": {"molecular_target": "T1, CYP3A4", "details": "260 μM CBZ, 1 μM CYP3A4 (33% HS without ligands)"}, "CYP3A4 [4]": {"molecular_target": "T1, CYP3A4", "test": "Absorbance difference titrations of recombinant CYP3A4 with MDZ and CBZ", "details": "CBZ alone; fit to eq 3"}, "CYP3A4 [5]": {"molecular_target": "T1, CYP3A4", "details": "read-out: Km of 10,11-epoxide formation; ref [26], [89]; cited from earlier work"}, "[6]": {"molecular_target": "recombinant human cytochrome P450 3A4 (CYP3A4 NF14 construct) (human) (UniProt P08684)", "test": "SEC"}, "[7]": {"details": "260 μM Carbamazepine alone, 1 μM CYP3A4"}, "[8]": {"details": "260 μM Carbamazepine alone, 1 μM CYP3A4, chemical equivalence (eq 7)"}, "[9]": {"details": "260 μM Carbamazepine alone, 1 μM CYP3A4, eq 6"}}, "note": "Marks after values point to notes of the source that are not given here."}
{"molecule": "NC(=O)N1c2ccccc2C=Cc2ccccc21", "note": "[CBZ, carbamazepine]", "values": [{"measurement": "effect of CBZ on 1′-OH-MDZ and 4-OH-MDZ formation", "setting": "CYP3A4 [1]; low [MDZ], 240 μM CBZ", "result": "competitively inhibit"}, {"measurement": "effect of CBZ on 1′-OH-MDZ formation", "setting": "CYP3A4 [1]; saturating CBZ (240 μM), near saturating MDZ", "result": "only partially inhibited"}, {"measurement": "RFe2+-CO, proton peak aa′", "setting": "CYP3A4 [2]; [7]", "result": "1.67 ± 0.11", "unit": "s⁻¹"}, {"measurement": "RFe2+-CO, proton peak bb′", "setting": "CYP3A4 [2]; [7]", "result": "1.54 ± 0.09", "unit": "s⁻¹"}, {"measurement": "RFe2+-CO, proton peak cc′", "setting": "CYP3A4 [2]; [7]", "result": "1.59 ± 0.10", "unit": "s⁻¹"}, {"measurement": "RFe2+-CO, proton peak dd′", "setting": "CYP3A4 [2]; [7]", "result": "1.47 ± 0.09", "unit": "s⁻¹"}, {"measurement": "RFe2+-CO, proton peak ee′", "setting": "CYP3A4 [2]; [7]", "result": "1.52 ± 0.09", "unit": "s⁻¹"}, {"measurement": "RFe3+, proton peak aa′", "setting": "CYP3A4 [2]; [7]", "result": "2.44 ± 0.24", "unit": "s⁻¹"}, {"measurement": "RFe3+, proton peak bb′", "setting": "CYP3A4 [2]; [7]", "result": "2.56 ± 0.33", "unit": "s⁻¹"}, {"measurement": "RFe3+, proton peak cc′", "setting": "CYP3A4 [2]; [7]", "result": "2.38 ± 0.23", "unit": "s⁻¹"}, {"measurement": "RFe3+, proton peak dd′", "setting": "CYP3A4 [2]; [7]", "result": "2.50 ± 0.25", "unit": "s⁻¹"}, {"measurement": "RFe3+, proton peak ee′", "setting": "CYP3A4 [2]; [7]", "result": "2.22 ± 0.20", "unit": "s⁻¹"}, {"measurement": "RP, proton peak aa′", "setting": "CYP3A4 [2]; [7]", "result": "0.77 ± 0.26", "unit": "s⁻¹"}, {"measurement": "RP, proton peak bb′", "setting": "CYP3A4 [2]; [7]", "result": "1.03 ± 0.34", "unit": "s⁻¹"}, {"measurement": "RP, proton peak cc′", "setting": "CYP3A4 [2]; [7]", "result": "0.79 ± 0.25", "unit": "s⁻¹"}, {"measurement": "RP, proton peak dd′", "setting": "CYP3A4 [2]; [7]", "result": "1.03 ± 0.26", "unit": "s⁻¹"}, {"measurement": "RP, proton peak ee′", "setting": "CYP3A4 [2]; [7]", "result": "0.71 ± 0.22", "unit": "s⁻¹"}, {"measurement": "rmin, proton peak aa′", "setting": "CYP3A4 [2]; [8]", "result": "7.02±0.40 ^b Å"}, {"measurement": "rmin, proton peak bb′", "setting": "CYP3A4 [2]; [8]", "result": "6.69±0.38 ^b Å"}, {"measurement": "rmin, proton peak cc′", "setting": "CYP3A4 [2]; [8]", "result": "6.98±0.37 ^b Å"}, {"measurement": "rmin, proton peak dd′", "setting": "CYP3A4 [2]; [8]", "result": "6.69±0.29 ^b Å"}, {"measurement": "rmin, proton peak ee′", "setting": "CYP3A4 [2]; [8]", "result": "7.12±0.37 ^b Å"}, {"measurement": "rapp, proton peak bb′", "setting": "CYP3A4 [2]; [9]", "result": "7.51±0.42", "unit": "Å"}, {"measurement": "rapp, proton peak cc′", "setting": "CYP3A4 [2]; [9]", "result": "7.84±0.41", "unit": "Å"}, {"measurement": "rapp, proton peak dd′", "setting": "CYP3A4 [2]; [9]", "result": "7.51±0.33", "unit": "Å"}, {"measurement": "rapp, proton peak ee′", "setting": "CYP3A4 [2]; [9]", "result": "7.99±0.41", "unit": "Å"}, {"measurement": "calculated proton-heme distances on average", "setting": "CYP3A4 [2]; CBZ alone", "result": "7–8 Å"}, {"measurement": "variation in the proton RPs", "setting": "CYP3A4 [2]; CBZ alone", "result": 30, "unit": "%"}, {"measurement": "RP of CBZ protons", "setting": "CYP3A4 [2]; in the presence of MDZ", "result": "< 0.04"}, {"measurement": "%HS of CYP3A4 heme", "setting": "CYP3A4 [3]", "result": 34, "unit": "%"}, {"measurement": "Amax of the CBZ titration curve", "setting": "CYP3A4 [4]", "result": "0.0049 ± 0.0007", "unit": "µM⁻¹ cm⁻¹"}, {"measurement": "Km", "setting": "CYP3A4 [5]", "result": "119 to 442", "unit": "µM"}]}
{"molecule": "recombinant human cytochrome P450 3A4 (CYP3A4 NF14 construct) (from UniProt P08684 1-503) (enzyme)", "values": [{"measurement": "stoichiometry N", "setting": "[6]", "result": 4}]}
